Assay results published in article PMC11585353, “Metatranscriptomics-guided discovery and characterization of a polyphenol-metabolizing gut microbial enzyme” (Cell host & microbe, 2024).

System: T1, Gp Hcdh (Unk-9; G. pamelaeae HCA dehydroxylase)
T1 construct: native untagged enzyme purified from G. pamelaeae 3C grown with HCA (ammonium sulfate, HIC, AEC, SEC); two subunits; catalytic subunit 770 aa; one Mo per protein (bis-MGD); with Hydrocaffeic acid dehydroxylase accessory subunit
Experiment: continuous spectrophotometric assay, methyl viologen oxidation at […] nm, Michaelis-Menten fit of initial rates
Type: biochemical, Gordonibacter pamelaeae
Details: 100 nM enzyme, anaerobic, 50 mM MOPS pH 7.0, 300 mM NaCl, 200 uM methyl viologen, 100 uM sodium dithionite, HCA 0.0625-4 mM

Km: 240 µM
SMILES: O=C(O)CCc1ccc(O)c(O)c1 [HCA, 3,4-dihydroxyhydrocinnamic acid]
